Data: US20110166059A1, “MEANS AND METHODS FOR EVALUATING A THERAPY WITH A P38 MAP KINASE INHIBITOR” (priority 2008, published 2011)

Experiments:
[1] = tested on: TNF, IL-6 or IL-10; details: human volunteers, control group increased after about 2-4 hours; oral inhibitor; cited from earlier work
[2] = tested on: LPS-stimulated human monocytes; test: Microarray gene expression profile of long-term LPS-stimulated monocytes in the presence of kinase inhibitors; type: cell-based; details: for late-stage LPS-induced gene expression change (principal component analysis, FIG. 4): long-term (16 hours) LPS-treated monocytes, 100 ng/ml LPS, inhibitor 10 μM
Protocol: (§1) Monocytes were isolated from pooled human buffy coats by Ficoll-Paque and subsequent Percoll (Pharmacia, Freiburg, Germany) density-gradient centrifugation to greater than 90% purity. Monocytes were cultured (1×10^6 cells/nil) in hydrophobic Teflon bags (Hereus, Hanau, Germany) in McCoy's 5a medium (Biochrom, Berlin, Germany) supplemented with 15% FCS, 2 mM L-glutamine, 200 IU penicillin, 100 μg/ml streptomycin and 1× NEAA (all from Biochrom, Berlin, Germany) and allowed to rest for 18 h prior to stimulation. Monocytes were exposed for 4 and 16 hours to 100 ng/ml LPS in the absence or presence of 10 μM PD98059, 10 μM GF109203X or 10 μm SB202190, respectively, or were left untreated
Total cellular RNA was isolated from 3 independent experiments with untreated and LPS-stimulated human monocytes in the absence or presence of pharmacological kinase inhibitors (RNeasy kit; Qiagen, Hilden, Germany). RNA preparation, samples preparation and hybridization to Affymetrix Human Genome 133 A Gene Chip arrays were performed according to the manufacturer's instructions (Affymetrix, Santa Clara, Calif.).
Ten micrograms of fragmented cRNA was, together with control cRNAs and grid alignment oligonucleotides, hybridized for 16 hours under constant rotation at 45° C. to Affymetrix Human Genome 133 A Gene Chip arrays (Affymetrix). Arrays were washed and stained using the Gene Chip Fluidics Station 400 (Affymetrix). Fluorescent signals were detected by the HP G2500A Gene Array Scanner (Affymetrix).
Data were processed by MicroArray Suite (MAS) Software 5.0 (Affymetrix). Signals were scaled to a target intensity of 100 and log transformed. The algorithm applied in the MAS 5.0 software assigned individual average background values to each cell intensity and subtracted it from single raw cell intensities Single raw values were calculated for each probe set (i.e., transcript from the median of discrimination values and their significance was assessed by using a one-sided Wilcoxon rank test).
While the MAS 5.0 software only allows comparison of 2 individuals data sets, we further studied the Affymetrix intensity files with the Expressionist Suite software package (GeneData, Basel, Switzerland) for a more sophisticated statistical analysis. […] The software package includes the Expressionist Refiner v3.0.4 which permits a global chip quality control with detection and masking of outliers and array defects, fluorescence gradient correction, and variance regularization. For final identification of significant gene expression difference we used Expressionist Analyst v4.0.5. First, data were normalized to a logarithmic mean of 180 in all experiments. […] Finally, n-fold changes were determined and screened for their significance by applying a t test. […]

[3] = tested on: promoter regions of LPS-regulated proinflammatory genes (VCAM, IL8, DUSP1, TNF, MYC) in monocytes; test: Chromatin immunoprecipitation (ChIP) of histone acetylation and methylation at promoters of pro-inflammatory genes in LPS-treated monocytes; type: cell-based, human; details: long-term (16 h) LPS treatment, ongoing inhibition of p38 MAP kinase; FIGS. 8 and 10
Protocol: as §1
After stimulation, monocytes were formalin-fixed, washed, lysed, and sonicated. DNA-protein complexes were immunoprecipitated with polyclonal histone-antibodies against H3K4 (abcam, Cambridge, UK), H3K79 and AcH4 (both upstate, Lake Placid, N.Y.). […] PCR products were processed by using the QuantiTect SYBR Green PCR kit to perform quantitative RT-PCRs employing the ABI PRISM 7900 (Applied Biosystems).

Structure (SMILES) | increase in cytokines such as TNF, IL-6 or IL-10 after LPS administration [1] | late-stage LPS-induced gene expression change (principal component analysis, FIG. 4) [2] | acetylation of H4 (AcH4) at pro-inflammatory genes [3] | down-regulation of inflammatory response genes in the late stage of LPS-signaling ([2]; human monocytes, 16 hours 100 ng/ml LPS, 10 μm SB202190)
Cc1ccc(-n2nc(C(C)(C)C)cc2NC(=O)Nc2ccc(OCCN3CCOCC3)c3ccccc23)cc1 [BIRB 796 BS, 1-(5-tert-butyl-2-p-tolyl-2H-pyrazol-3-yl)-3-[4-(2-morpholin-4-yl-ethoxy)-naphthalen-1-yl]-urea] | did not show a significant increase in these cytokines |  |  | 
CN(C)CCCn1cc(C2=C(c3c[nH]c4ccccc34)C(=O)NC2=O)c2ccccc21 [GF109203X] |  | did not significantly change gene expression |  | 
COc1cccc(-c2cc(=O)c3ccccc3o2)c1N [PD98059] |  | did not significantly change gene expression |  | 
Oc1ccc(-c2nc(-c3ccncc3)c(-c3ccc(F)cc3)[nH]2)cc1 [SB202190, 4-(4-fluorophenyl)-2-2(4-hydroxyphenyl)-5-(4-pyridyl)-imidazole] |  | changed significantly | sustained high acetylation of H4 (AcH4) | reversed the down-regulation of inflammatory response genes
